What was measured:
Format in all cases: biochemical
Human PKK = target: T1, Human PKK (Homo sapiens, UniProt P03952); assay: Inhibition of PKK using an endpoint assay; settings: fluorogenic substrate H-Pro-Phe-Arg-AMC, 1 h at room temperature
T1 construct: purchased Enzyme Research Laboratories
Description: (§1) The ability of compounds of formula (I) to inhibit plasma kallikrein (PKK), Factor XIIa (FXIIa), Factor XIa (FXIa), Factor Xa (FXa), Factor IIa (alpha-thrombin; FIIa), plasmin, trypsin, tissue kallikrein 1 (TK1), Factor Vila (FVIIa), or FVIIa complexed with Tissue Factor, phospholipids and CaCl2 (FVIIa/TF/PL/CaCl2) is determined using the following biochemical assays in assay buffer (100 mM Tris, 150 mM NaCL, adjusted to a pH of 7.8 with HCl, and containing 0.1% (w/v) BSA and 0.05% (v/v) Tween20) in the presence of 1% (v/v) DMSO:
Subsequently, PPACK 11 (Calbiochem) is added as a stop solution to achieve a final concentration of 1 μM and fluorescence is measured using an Envision Reader (PerkinElmer) with the wavelength excitation setting of 355 nm and the wavelength emission setting of 460 nm.

[1] = target: T2, PKK in kaolin activated human platelet poor plasma (Homo sapiens, UniProt P03952); assay: Inhibition of PKK in kaolin activated human PPP; settings: kaolin (25, 75, 250, 750 μg/mL) activated human PPP, global fit
T2 construct: Platelet poor plasma (PPP) obtained from human wholeblood; from tissue
T2 sequence (P03952 391-638 limits assumed): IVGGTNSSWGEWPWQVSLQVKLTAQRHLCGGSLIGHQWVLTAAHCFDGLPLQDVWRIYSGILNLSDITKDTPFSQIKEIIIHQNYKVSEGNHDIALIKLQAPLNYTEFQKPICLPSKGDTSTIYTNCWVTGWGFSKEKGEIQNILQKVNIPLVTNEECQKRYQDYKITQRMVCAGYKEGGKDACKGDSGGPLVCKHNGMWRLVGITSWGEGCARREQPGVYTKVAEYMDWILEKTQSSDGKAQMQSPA
T2 sequence (P03952 20-390 partner limits assumed): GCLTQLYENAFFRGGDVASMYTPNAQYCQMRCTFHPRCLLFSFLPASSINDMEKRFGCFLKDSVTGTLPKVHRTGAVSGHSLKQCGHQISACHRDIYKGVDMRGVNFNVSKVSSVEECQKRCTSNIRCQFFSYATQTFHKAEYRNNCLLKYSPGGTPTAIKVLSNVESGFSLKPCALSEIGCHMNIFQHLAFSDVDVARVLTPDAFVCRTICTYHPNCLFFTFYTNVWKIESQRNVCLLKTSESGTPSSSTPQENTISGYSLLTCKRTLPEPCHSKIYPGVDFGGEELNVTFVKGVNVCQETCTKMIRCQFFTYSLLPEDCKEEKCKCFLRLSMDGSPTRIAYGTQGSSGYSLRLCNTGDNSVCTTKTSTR
Description: Platelet poor plasma (PPP) obtained from human wholeblood, anticoagulated with Na-Citrate, is incubated with various concentrations of the test compound together with either 25, 75, 250, or 750 μg/mL kaolin in assay buffer for 20 min at 37° C. such that for each kaolin dose used a concentration response is obtained for the test compound.

human TK1 = target: T3, human TK1 (Homo sapiens, UniProt P06870); assay: Inhibition of TK1 (Ki); settings: activated human TK1, substrate H-Pro-Phe-Arg-AMC, 24° C.; Ki from IC50 corrected for KM
T3 construct: purchased R&D Systems
T3 sequence (P06870 25-262): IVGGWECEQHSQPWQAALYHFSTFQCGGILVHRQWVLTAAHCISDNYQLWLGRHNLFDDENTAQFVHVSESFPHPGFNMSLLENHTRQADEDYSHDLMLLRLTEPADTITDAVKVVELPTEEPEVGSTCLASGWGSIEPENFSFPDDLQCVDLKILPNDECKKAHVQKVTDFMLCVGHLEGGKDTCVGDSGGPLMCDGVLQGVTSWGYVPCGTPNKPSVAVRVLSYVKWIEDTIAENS
Description: as §1
Prior to the assay, human TK1 (R&D Systems) is activated by incubation with human trypsin (Calbiochem) in a 1:10,000 ratio for 15 min at 37° C. For assaying TK1 inhibitory activity, activated TK1 (31.25 nM or 1 U/mL) is incubated at 24° C. with 0.1 mM fluorogenic substrate H-Pro-Phe-Arg-AMC (I1295 from Bachem) and various concentrations of the test compound in assay buffer. Measurements are performed in a kinetic interval every 2nd minute for 16 min using a Spectramax M5 (Molecular Devices) with the following settings of the wavelength excitation of 350 nm and wavelength emission of 450 nm.
The pIC50 values are then fitted using a four-parametric fitting procedure using GraphPad Prism (version 6; GraphPad Software, Inc.). […]

T1 sequence (P03952 391-638 limits assumed): as the sequence (P03952 391-638 limits assumed) above
T1 sequence (P03952 20-390 partner limits assumed): as the sequence (P03952 20-390 partner limits assumed) above

## Cc1[nH]nc2c1CC[C@H]2NC(=O)c1cnn(Cc2ccc(N3CC4(CC4)C3)nc2C(F)F)c1 [Example 1, 1-[(6-{5-Azaspiro[2.3]hexan-5-yl}-2-(difluoromethyl)pyridin-3-yl)methyl]-N-[(6R)-3-methyl-2H,4H,5H,6H-cyclopenta[c]pyrazol-6-yl]-1H-pyrazole-4-carboxamide]
Human PKK
  IC50: 0.8 nM
[1]
  IC90: 182 nM

## Cc1[nH]nc2c1CC[C@H]2NC(=O)c1cnn(Cc2cnc(N3CC4CC4C3)nc2C(F)F)c1 (stereo partly drawn) [Example 2, 1-[(2-{3-Azabicyclo[3.1.0]hexan-3-yl}-4-(difluoromethyl)-pyrimidin-5-yl)methyl]-N-[(6R)-3-methyl-2H,4H,5H,6H-cyclopenta[c]pyrazol-6-yl]-1H-pyrazole-4-carboxamide]
Human PKK
  IC50: 1.8 nM
[1]
  IC90: 499 nM

## Cc1[nH]nc2c1CC[C@H]2NC(=O)c1cn(Cc2ccc(N3CC4CC4C3)nc2C(F)F)nn1 (stereo partly drawn) [Example 3, 1-[(6-{3-Azabicyclo[3.1.0]hexan-3-yl}-2-(difluoromethyl)-pyridin-3-yl)methyl]-N-[(6R)-3-methyl-2H,4H,5H,6H-cyclo-penta[c]pyrazol-6-yl]-1H-1,2,3-triazole-4-carboxamide]
Human PKK
  IC50: 0.9 nM
[1]
  IC90: 486 nM

## Cc1[nH]nc2c1CC[C@H]2NC(=O)c1cn(Cc2ccc(N3CC4(CC4)C3)nc2C(F)F)nn1 [Example 4, 1-[(6-{5-Azaspiro[2.3]hexan-5-yl}-2-(difluoromethyl)pyridin-3-yl)methyl]-N-[(6R)-3-methyl-2H,4H,5H,6H-cydopenta[c]-pyrazol-6-yl]-1H-1,2,3-triazole-4-carboxamide]
[1]
  IC90: 122 nM

## Cc1[nH]nc2c1CC[C@H]2NC(=O)c1cn(Cc2ccc(N3CC4(CC4)C3)nc2C(F)F)cn1 [Example 5, 1-[(6-{5-Azaspiro[2.3]hexan-5-yl}-2-(difluoromethyl)-pyridin-3-yl)methyl]-N-[(6R)-3-methyl-2H,4H,5H,6H-cyclopenta[c]pyrazol-6-yl]-1H-imidazole-4-carboxamide]
[1]
  IC90: 149 nM

## Cc1[nH]nc2c1CC[C@H]2NC(=O)c1cn(Cc2ccc(N3CC4CC4C3)nc2C(F)F)cn1 (stereo partly drawn) [Example 6, 1-[(6-{3-Azabicyclo[3.1.0]hexan-3-yl}-2-(difluoromethyl)-pyridin-3-yl)methyl]-N-[(6R)-3-methyl-2H,4H,5H,6H-cyclopenta[c]pyrazol-6-yl]-1H-imidazole-4-carboxamide]
[1]
  IC90: 293 nM

## Cc1[nH]nc2c1CC[C@H]2NC(=O)c1cnn(Cc2ccc(N3CC4CC4C3)nc2C(F)F)c1 (stereo partly drawn) [Example 7, 1-[(6-{3-Azabicyclo[3.1.0]hexan-3-yl}-2-(difluoromethyl)-pyridin-3-yl)methyl]-N-[(6R)-3-methyl-2H,4H,5H,6H-cyclopenta[c]pyrazol-6-yl]-1H-pyrazole-4-carboxamide]
[1]
  IC90: 195 nM

## Cc1[nH]nc2c1CC[C@H]2NC(=O)c1cn(Cc2cnc(N3CC4CC4C3)nc2C(F)F)cn1 (stereo partly drawn) [Example 8, 1-[(2-{3-Azabicyclo[3.1.0]hexan-3-yl}-4-(difluoromethyl)-pyrimidin-5-yl)methyl]-N-[(6R)-3-methyl-2H,4H,5H,6H-cyclopenta[c]pyrazol-6-yl]-1H-imidazole-4-carboxamide]
Human PKK
  IC50: 2.1 nM
[1]
  IC90: 305 nM

## Cc1[nH]nc2c1CC[C@H]2NC(=O)c1cn(Cc2cnc(N3CC4CC4C3)cc2C(F)(F)F)cn1 (stereo partly drawn) [Example 9, 1-[(6-{3-Azabicyclo[3.1.0]hexan-3-yl}-4-(trifluoromethyl)-pyridin-3-yl)methyl]-N-[(6R)-3-methyl-2H,4H,5H,6H-cyclopenta[c]pyrazol-6-yl]-1H-imidazole-4-carboxamide]
Human PKK
  IC50: 1.8 nM
[1]
  IC90: 539 nM
Human TK1
  Ki: > 10000 nM

## Cc1[nH]nc2c1CC[C@H]2NC(=O)c1cnn(Cc2ccc(N3CC4C(C3)C4(F)F)nc2C(F)F)c1 (stereo partly drawn) [Example 10, 1-[(6-{6,6-Difluoro-3-azabicyclo[3.1.0]hexan-3-yl}-2-(difluoromethyl)pyridin-3-yl)methyl]-N-[(6R)-3-methyl-2H,4H,5H,6H-cyclopenta-[c]pyrazol-6-yl]-1H-pyrazole-4-carboxamide]
[1]
  IC90: 242 nM

## Cc1[nH]nc2c1CC[C@H]2NC(=O)c1cn(Cc2ccc(N3CC4C(C3)C4(F)F)nc2C(F)F)cn1 (stereo partly drawn) [Example 11, 1-[(6-{6,6-Difluoro-3-azabicyclo[3.1.0]hexan-3-yl}-2-(difluoromethyl)pyridin-3-yl)methyl]-N-[(6R)-3-methyl-2H,4H,5H,6H-cyclopenta-[c]pyrazol-6-yl]-1H-imidazole-4-carboxamide]
[1]
  IC90: 236 nM

## Cc1[nH]nc2c1CC[C@H]2NC(=O)c1cnn(Cc2cnc(N3CC4CC4C3)cc2C(F)(F)F)c1 (stereo partly drawn) [Example 12, 1-[(6-{3-Azabicyclo[3.1.0]hexan-3-yl}-4-(trifluoromethyl)-pyridin-3-yl)methyl]-N-[(6R)-3-methyl-2H,4H,5H,6H-cyclopenta[c]pyrazol-6-yl]-1H-pyrazole-4-carboxamide]
Human PKK
  IC50: 2.6 nM

## Cc1[nH]nc2c1CC[C@H]2NC(=O)c1cnn(Cc2ccc(N3CC4CC4C3)nc2C(F)(F)F)c1 (stereo partly drawn) [Example 13, 1-[(6-{3-Azabicyclo[3.1.0]hexan-3-yl}-2-(trifluoromethyl)pyridin-3-yl)methyl]-N-[(6R)-3-methyl-2H,4H,5H,6H-cyclopenta[c]pyrazol-6-yl]-1H-pyrazole-4-carboxamide]
Human PKK
  IC50: 1.9 nM
[1]
  IC90: 746 nM
Human TK1
  Ki: > 10000 nM

Reference: patent US11851418B2, “Heteroaromatic carboxamide derivatives as plasma kallikrein inhibitors” (Boehringer Ingelheim International GmbH, priority 2020, dated 2023)
